“And” between values parts separate entries of the source, which are not always exact repeats. Equal entries are not always repeated. Structures can show the parent of a compound that is named as a salt.
Assays:
[1] = test system: IL-1β cytokine output from THP-1s; assay: THP-1 AlphaLISA IL-1β cytokine assay; format: cell-based; details: LPS then nigericin, Table 1
Description: (§1) The cytokine inhibition profiles of compounds of formula (I) were determined in a differentiated THP-1 cell assay. All assays were performed in RPMI-1640 growth medium (Gibco), supplemented with 10% fetal bovine serum (FBS; Gibco), 1% penicillin-streptomycin and 1% sodium pyruvate unless specified otherwise. The IL-1β and IL-6 cytokine inhibition assays were each run in a background of differentiated THP-1 cells as described below. All reagents described were from Sigma-Aldrich unless specified otherwise. Compounds were prepared as 10 mM DMSO stocks.
(§2) THP-1 cells were expanded as a suspension up to 80% confluence in appropriate growth medium. Cells were harvested, suspended, and treated with an appropriate concentration of phorbol 12-myristate 13-acetate (PMA) over a 72 hr period (37° C./5% CO2).
(§3) Following 72 hrs of THP-1 cell incubation, cellular medium was removed and replaced with fresh growth media containing 1% of FBS. Working concentrations of compounds were prepared separately in 10% FBS treated growth medium and pre-incubated with the cells for 30 minutes (37° C./5% CO2). Following the 30 minute compound pre-incubation, THP-1s were treated with an appropriate concentration of LPS and the THP-1s were subsequently incubated for a 24 hr period (37° C./5% CO2). An appropriate final concentration of Nigericin was then dispensed into the THP-1 plates and incubated for 1 hour (37° C./5% CO2) before THP-1 supernatants were harvested and collected in separate polypropylene 96-well holding plates.
(§4) Reagents from each of the IL-1β and IL-6 commercial kits (Perkin Elmer) were prepared and run according to the manufacturer's instructions. Subsequently, fluorescence signal detection in a microplate reader was measured (EnVision® Multilabel Reader, Perkin Elmer).
(§5) Percentage inhibition was calculated per cytokine by normalising the sample data to the high and low controls used within each plate (+/− LPS respectively). Percentage inhibition was then plotted against compound concentration and the 50% inhibitory concentration (IC50) was determined from the resultant concentration-response curve.

mouse hepatocytes = assay: Hepatocyte stability assay, mouse; format: in vitro ADME; details: 10 μM compound
Text: (§6) Defrosted cryo-preserved hepatocytes (viability >70%) were used to determine the metabolic stability of a compound via calculation of intrinsic clearance (Clint; a measure of the removal of a compound from the liver in the absence of blood flow and cell binding). Clearance data are particularly important for in vitro work as they can be used in combination with in vivo data to predict the half-life and oral bioavailability of a drug.
(§7) The metabolic stability in hepatocytes assay involves a time-dependent reaction using both positive and negative controls. The cells were pre-incubated at 37° C. and spiked with test compound (and positive control); samples were taken at pre-determined time intervals were analysed to monitor the change in concentration of the initial drug compound over 60 minutes. A buffer incubation reaction (with no hepatocytes present) acted as a negative control and two cocktail solutions, containing compounds with known high and low clearance values (verapamil/7-hydroxycoumarin and propranolol/diltiazem), acted as positive controls. • 1. The assay was run with a cell concentration of 0.5×10^6 cells/mL in Leibovitz buffer. • 2. All compounds and controls were run in duplicate. • 3. Compound concentration was 10 μM. • 4. All compounds and controls were incubated with both cells and buffer to show turnover was due to hepatic metabolism. • 5. All wells on the incubation plate had 326.7 μL of either cells or buffer added. • 6. Prior to assay, cell and buffer-only incubation plates were preincubated for 10 mins at 37° C. • 7. The assay was initiated by adding compounds, 3.3 μL of 1 mM in 10% DMSO-90% Buffer; final DMSO concentration was 0.1%. • 8. Samples were taken at regular timepoints (0, 5, 10, 20, 40, 60 min) until 60 mins. • 9. Sample volume was 40 μL and was added to 160 μL of crash solvent (acetonitrile with internal standard) and stored on ice. • 10. At the end of the assay, the crash plates were centrifuged at 3500 rpm for 20 mins at 4° C. • 11. 80 μL of clear supernatant was removed and mixed with 80 μL of deionised water before being analysed by LC-MS/MS.
(§8) Raw LC-MS/MS data was exported to, and analysed in, Microsoft Excel for determination of intrinsic clearance. The percentage remaining of a compound was monitored using the peak area of the initial concentration as 100%. Intrinsic clearance and half-life values were calculated using a graph of the natural log of percentage remaining versus the time of reaction in minutes. Half-life (min) and intrinsic clearance (Clint in μL min^−1 10^−6 cells) values were calculated using the gradient of the graph (the elimination rate constant, k) and Equations 1 and 2.

[2] = Hepatocyte stability assay, human; format: in vitro ADME; details: human, cryopreserved hepatocytes, 10 μM compound, read-out: T½
Text: as §6, §7, §8

human hepatocytes = assay: Hepatocyte stability assay, human; format: in vitro ADME; details: 10 μM compound
Text: as §6, §7, §8

[3] = test system: IL-6 cytokine output from THP-1s; assay: THP-1 AlphaLISA IL-6 cytokine assay; format: cell-based; details: LPS then nigericin, Table 1
Description: as §1, §2, §3, §4, §5

[4] = test system: NRF2 (nuclear factor erythroid 2-related factor 2); assay: NRF2 +/-GSH activation assay (DiscoverX PathHunter NRF2 translocation kit, U2OS cells); format: cell-based; details: for Emax (%) +GSH / Emax (%) −GSH: normalised to dimethyl fumarate high control
[5] = Homo sapiens, THP-1, differentiated THP-1 cells

SMILES	IC50 [1, 5]	Clint (μL min^−1 10^−6 cells) (mouse hepatocytes)	T½ (mouse hepatocytes)	half-life at 10 μM [2]	Clint (μL min^−1 10^−6 cells) (human hepatocytes)	IC50 ([3]; differentiated THP-1 cells)	EC50 ([4]; +GSH)	Emax (%) +GSH ([4]; +GSH)	EC50 ([4]; −GSH)	Emax (%) −GSH ([4]; −GSH)	IC50 ([1]; differentiated THP-1 cells)	T½ (human hepatocytes)	IC50 [3, 5]
C=C(CC(=O)OC1CCc2ccc(OC(F)(F)F)cc21)C(=O)OCC(=O)O (single isomer, unassigned; enantiomer 1) [Example 28, 2-((2-methylene-4-oxo-4-((6-(trifluoromethoxy)-2,3-dihydro-1H-inden-1-yl)oxy)butanoyl)oxy)acetic acid (Enantiomer 1)]	11.7 µM	49 μL min^−1 10^−6 cells	32 min	75 min	21 μL min^−1 10^−6 cells	7.6 µM	22.5 µM	139%	8 µM	160%	–	–	–
C=C(CC(=O)OC1CCc2cc(C(F)(F)F)ccc21)C(=O)OCC(=O)O (single isomer, unassigned; enantiomer 2) [Example 29, 2-((2-methylene-4-oxo-4-((5-(trifluoromethyl)-2,3-dihydro-1H-inden-1-yl)oxy)butanoyl)oxy)acetic acid (Enantiomer 2)]	–	92 μL min^−1 10^−6 cells	17 min	–	10 μL min^−1 10^−6 cells	5.8 µM	18.7 µM and 25.9 µM	141% and 175%	5.9 µM and 11.5 µM	147% and 211%	11.4 µM	152 min	–
C=C(CC(=O)OC1CCc2c(Br)cc(F)cc21)C(=O)OCC(=O)O (single isomer, unassigned; enantiomer 1) [Example 15, 2-((4-((4-bromo-6-fluoro-2,3-dihydro-1H-inden-1-yl)oxy)-2-methylene-4-oxobutanoyl)oxy)acetic acid (Enantiomer 1)]	2.4 µM	51 μL min^−1 10^−6 cells	24 min	165 min	9 μL min^−1 10^−6 cells	–	–	–	–	–	–	–	–
COC(=O)/C=C/C(=O)OC [dimethyl fumarate, reference compound]	14.4 µM	–	–	–	–	–	> 100 µM	19%	6 µM	100%	–	–	9.3 µM
C=C(CC(=O)OC1CCc2cc(Cl)c(Cl)cc21)C(=O)OCC(=O)O (single isomer, unassigned; enantiomer 1) [Example 5, 2-((4-((5,6-dichloro-2,3-dihydro-1H-inden-1-yl)oxy)-2-methylene-4-oxobutanoyl)oxy)acetic acid (Enantiomer 1)]	12.3 µM	431 μL min^−1 10^−6 cells	3 min	140 min	11 μL min^−1 10^−6 cells	–	19.5 µM	246%	10.8 µM	280%	–	–	–
C=C(CC(=O)OC1CCCc2c(Cl)cc(Cl)cc21)C(=O)OCC(=O)O (single isomer, unassigned; enantiomer 2) [Example 25, 2-((4-((5,7-dichloro-1,2,3,4-tetrahydronaphthalen-1-yl)oxy)-2-methylene-4-oxobutanoyl)oxy)acetic acid (Enantiomer 2)]	–	>460 μL min^−1 10^−6 cells	<3 min	–	29 μL min^−1 10^−6 cells	6.2 µM	10.6 µM	147%	6 µM	205%	4.8 µM	58 min	–
C=C(CC(=O)OC1CCc2c(Cl)cc(F)cc21)C(=O)OCC(=O)O (single isomer, unassigned; enantiomer 2) [Example 20, 2-((4-((4-chloro-6-fluoro-2,3-dihydro-1H-inden-1-yl)oxy)-2-methylene-4-oxobutanoyl)oxy)acetic acid (Enantiomer 2)]	–	>460 μL min^−1 10^−6 cells	<3 min	–	11 μL min^−1 10^−6 cells	–	31.8 µM	155%	12.9 µM	234%	1.4 µM	125 min	3.9 µM
C=C(CC(=O)OC1CCc2ccc(OC(F)(F)F)cc21)C(=O)OCC(=O)O (single isomer, unassigned; enantiomer 2) [Example 30, 2-((2-methylene-4-oxo-4-((6-(trifluoromethoxy)-2,3-dihydro-1H-inden-1-yl)oxy)butanoyl)oxy)acetic acid (Enantiomer 2)]	–	393 μL min^−1 10^−6 cells	4 min	–	19 μL min^−1 10^−6 cells	20.6 µM	28.7 µM	182%	21.6 µM	225%	7.9 µM	81 min	–
C=C(CC(=O)OC1CCc2c(Cl)cc(Cl)cc21)C(=O)OCC(=O)O (single isomer, unassigned; enantiomer 2) [Example 3, 2-((4-((4,6-dichloro-2,3-dihydro-1H-inden-1-yl)oxy)-2-methylene-4-oxobutanoyl)oxy)acetic acid (Enantiomer 2)]	–	>460 μL min^−1 10^−6 cells	<3 min	–	16 μL min^−1 10^−6 cells	3.6 µM	15.8 µM	211%	9.8 µM	229%	5.6 µM	93 min	–

Source: patent US12678419B2, “Compounds” (Sitryx Therapeutics Limited, priority 2020, dated 2026)
